The results in this text go back to patent publication US20250034173A1, “PYRIDO[4,3-D]PYRIMIDINE COMPOUNDS” (PFIZER INC., priority 2023, published 2025).

Test [1] concerns SW620 (colorectal cancer cell line). Briefly: KRAS Cell Titer Glo (CTG) cell proliferation assay, SW620. Type of test: cell-based. Conditions: Homo sapiens, SW-620, 168 h; SW620 cells, 7-day CTG, geomean IC50. The source says:
(§1) The CellTiter-Glo® (CTG) Luminescent Cell Viability Assay is a homogeneous method of determining the number of viable cells in culture based on quantitation of the ATP present, an indicator of metabolically active cells. The CTG is designed for use with multi-well formats, making it ideal for automated high-throughput screening (HTS), cell proliferation and cytotoxicity assays. The homogeneous assay procedure involves adding the single reagent (CellTiter-Glo® Reagent) directly to cells cultured in serum-supplemented medium. Cell washing, removal of medium and multiple pipetting steps are not required. The system detects as few as 15 cells per well in a 384-well format in 10 minutes after adding reagent and mixing.
(§2) Cells are grown in humidified 5% CO2 incubator at 37° C. using the culture conditions outlined below. All cell culture media reagents were purchased from Gibco. Cell lines purchased from ATCC: H358 (non-small cell lung cancer cell line), SW620 (colorectal cancer cell line), PANC08.13 (RPM11640+10% FBS+10 units/mL Insulin, pancreatic cancer cell line). Test and control compounds are dispensed as nanoliter drops according to desired final concentrations in 0.1% DMSO using Echo Acoustic Dispenser onto 384 assay plates (Corning, Cat #3764) prior to cell seeding. Cells were seeded in 40 μL volume per well at the following cell densities (cells per well): H358 (300), SW620 (750), PANC 08.13 (600). Cells are incubated in the presence of compound for 7-days. Viability is determined on Day 7 using CellTiter-Glo® (CTG) Luminescent Cell Viability Assay (Promega). CTG is added to a […] per well and incubated at room temperature for 15 minutes before luminescence is captured using an EnVision Reader with LUM384 US protocol. Data is analyzed using Activity Base to determine compound response and will be represented either as a percent effect (PCTEFF) or percent control (PCTOCTL) as described: Zero percent effect control (ZPE) (Negative control)—100% DMSO. Hundred percent effect (HPE) (Positive control)—1 uM Trametinib (GSK1120212, MEK inhibitor) (4 nl of 10 mM and 36 nl of DMSO per well). The following equations/nomenclature are used (% Effect; PCTEFF) and (% of Control; PCTOCTL): PCTEFF: 100*(Raw_Data_Value−HPE/ZPE−HPE), PCTOCTL: 100*Raw_Data_Value/User_Defined_Array), where the User_Defined_Array is either summarized HPE or ZPE.
(§3) Cells with “nd” indicate compound not tested in that particular assay at time of writing. It is to be understood that the geomean IC50 data may change slightly over time with increasing repeat data (ie: increasing n #).

The subject of test [2] is H358 (non-small cell lung cancer cell line). Kind of test: KRAS Cell Titer Glo (CTG) cell proliferation assay, H358. The following applies: Homo sapiens, NCI-H358, 168 h; H358 cells, 7-day CTG, geomean IC50. Type of test: cell-based.
Excerpt: as §1, §2, §3
(In ATP-based viability assays light output follows the ATP content of the culture.)

The subject of test [3] is PANC08.13 (pancreatic cancer cell line). Briefly: KRAS Cell Titer Glo (CTG) cell proliferation assay, PANC08.13. In kind it is cell-based. The following applies: Homo sapiens, PANC-08-13, 168 h; PANC08.13 cells, 7-day CTG, geomean IC50.
Excerpt: as §1, §2, §3

Another test deals with KRAS Wild Type (Homo sapiens (Human), UniProt P01116). Briefly: SPR binding affinity and kinetics, GTPγS-loaded KRAS Wild Type. Conditions: GTPγS loaded protein, geomean. The source says: (§4) No additional regeneration was used.
(§5) Compound dissociation was monitored for at least 3600 seconds. […] No additional regeneration was used.
(§6) The adequateness of the fit was judged by c2 values and the randomness of residue distribution.
On the technique in general: SPR reads the build-up and loss of mass on a sensor chip optically.

Another test concerns the target KRAS G12V (Homo sapiens (Human), UniProt P01116, G12V). Briefly: SPR binding affinity and kinetics, GTPγS-loaded KRAS G12V. The following applies: GTPγS loaded protein, geomean.
Excerpt: as §4, §5, §6

The next test has as its target KRAS G12D (Homo sapiens (Human), UniProt P01116, G12D). Kind of test: SPR binding affinity and kinetics, GTPγS-loaded KRAS G12D. The following applies: GTPγS loaded protein, geomean.
Excerpt: as §4, §5, §6

The next test has as its target KRAS G12C (Homo sapiens (Human), UniProt P01116, G12C). Briefly: SPR binding affinity and kinetics, GTPγS-loaded KRAS G12C. Conditions: GTPγS loaded protein, geomean.
Excerpt: as §4, §5, §6

Sequence of KRAS G12C (P01116 other isoform, or with tags, fused parts or gaps G12C): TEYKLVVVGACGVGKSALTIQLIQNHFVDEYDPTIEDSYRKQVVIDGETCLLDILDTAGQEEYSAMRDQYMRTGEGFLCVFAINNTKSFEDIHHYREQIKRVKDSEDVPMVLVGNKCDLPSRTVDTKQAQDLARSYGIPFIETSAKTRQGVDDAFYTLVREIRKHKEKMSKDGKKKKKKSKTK
Sequence of KRAS G12V (P01116 other isoform, or with tags, fused parts or gaps G12V): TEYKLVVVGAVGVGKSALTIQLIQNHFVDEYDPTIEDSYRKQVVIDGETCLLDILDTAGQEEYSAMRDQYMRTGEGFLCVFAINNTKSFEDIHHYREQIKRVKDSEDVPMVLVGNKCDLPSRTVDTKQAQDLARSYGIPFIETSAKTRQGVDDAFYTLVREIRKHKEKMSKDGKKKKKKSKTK
Sequence of KRAS G12D (P01116 other isoform, or with tags, fused parts or gaps G12D): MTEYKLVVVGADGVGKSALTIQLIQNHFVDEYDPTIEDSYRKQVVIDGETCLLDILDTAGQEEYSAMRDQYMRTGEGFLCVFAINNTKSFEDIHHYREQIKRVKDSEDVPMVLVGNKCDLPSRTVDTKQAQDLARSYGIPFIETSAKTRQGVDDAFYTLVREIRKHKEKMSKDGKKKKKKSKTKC
Sequence of KRAS Wild Type (P01116 other isoform, or with tags, fused parts or gaps): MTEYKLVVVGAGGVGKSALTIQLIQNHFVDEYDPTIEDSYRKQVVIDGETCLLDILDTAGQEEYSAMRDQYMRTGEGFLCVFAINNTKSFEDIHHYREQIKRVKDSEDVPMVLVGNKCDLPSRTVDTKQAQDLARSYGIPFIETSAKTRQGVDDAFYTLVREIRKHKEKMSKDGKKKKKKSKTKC

As a reminder, the IC50 is the concentration at which inhibition is half-maximal. The Kd is the concentration at which binding is half-saturated. Lower therefore signals a tighter complex. In the case of `C=C1CN2CCC[C@@]2(COc2nc3c4c(nc(-c5c(C)c(Cl)cc6[nH]ncc56)c(F)c4n2)OC[C@@H]2COCCCN32)C1` [Example 7, (8aS)-5-(6-chloro-5-methyl-1H-indazol-4-yl)-4-fluoro-2-{[(7aS)-2-methylidenetetrahydro-1H-pyrrolizin-7a(5H)-yl]methoxy}-8a,9,12,13-tetrahydro-8H,11H-7,10-dioxa-1,3,6,13a-tetraazanaphtho[1,8-ab]heptalene], the IC50 in test [1] came out at 139 nM; in test [2], 173 nM; in test [3] it was 22 nM. In addition, the Kd was determined as 34 nM on KRAS Wild Type, 24 nM at KRAS G12V, 28 nM on KRAS G12D and 15 nM on KRAS G12C.
Regarding `C=C1CN2CCC[C@@]2(COc2nc3c4c(nc(-c5c(Cl)c(C)cc6[nH]ncc56)c(F)c4n2)OC[C@@H]2COCCCN32)C1` [Example 8], the values for the half-maximal inhibitory concentration (IC50) in test [1], in test [2] and in test [3] were 294 nM, 263 nM and 48 nM, respectively. The Kd on KRAS Wild Type amounted to 117 nM; on KRAS G12V, 105 nM; on KRAS G12D, 141 nM; at KRAS G12C, 176 nM.
In the case of `C=C1CN2CC(F)C[C@@]2(COc2nc3c4c(nc(-c5c(C6CC6)c(Cl)cc6[nH]ncc56)c(F)c4n2)OC[C@@H]2COCCCN32)C1` (stereo partly drawn) [Example 14, (8aS)-5-(6-chloro-5-cyclopropyl-1H-indazol-4-yl)-4-fluoro-2-{[(2R,7aR)-2-fluoro-6-methylidenetetrahydro-1H-pyrrolizin-7a(5H)-yl]methoxy}-8a,9,12,13-tetrahydro-8H,11H-7,10-dioxa-1,3,6,13a-tetraazanaphtho[1,8-ab]heptalene], the IC50 was 30 nM in test [1], 80 nM in test [2] and 13 nM in test [3]. The Kd at KRAS Wild Type worked out at 8 nM; at KRAS G12V it was 7 nM; on KRAS G12D, 5 nM; at KRAS G12C, 9 nM.
On to `F/C=C1/CN2CCC[C@@]2(COc2nc3c4c(nc(-c5c(C6CC6)c(Cl)cc6[nH]ncc56)c(F)c4n2)OC[C@@H]2COCCCN32)C1` [Example 15, (8aS)-5-(6-chloro-5-cyclopropyl-1H-indazol-4-yl)-4-fluoro-2-{[(2E,7aS)-2-(fluoromethylidene)tetrahydro-1H-pyrrolizin-7a(5H)-yl]methoxy}-8a,9,12,13-tetrahydro-8H,11H-7,10-dioxa-1,3,6,13a-tetraazanaphtho[1,8-ab]heptalene], for which the IC50 is 31 nM in test [1], 30 nM in test [2] and 3 nM in test [3]. Also, the Kd on KRAS Wild Type was 4 nM; on KRAS G12V, 4 nM; on KRAS G12D, 2 nM; at KRAS G12C it was 5 nM.
Turning to `C=C1CN2C[C@@H](O)C[C@@]2(COc2nc3c4c(nc(-c5c(C6CC6)c(Cl)cc6[nH]ncc56)c(F)c4n2)OC[C@@H]2COCCCN32)C1` [Example 17, (2S,7aR)-7a-({[(8aS)-5-(6-chloro-5-cyclopropyl-1H-indazol-4-yl)-4-fluoro-8a,9,12,13-tetrahydro-8H,11H-7,10-dioxa-1,3,6,13a-tetraazanaphtho[1,8-ab]heptalen-2-yl]oxy}methyl)-6-methylidenehexahydro-1H-pyrrolizin-2-ol], the IC50 in test [1] is 190 nM; in test [2], 80 nM; in test [3] it was 31 nM. Moreover, the Kd at KRAS Wild Type is 5 nM; on KRAS G12V it was 4 nM; on KRAS G12D it was 3 nM; on KRAS G12C, 5 nM.
Take `Fc1c(-c2c(C3CC3)c(Cl)cc3[nH]ncc23)nc2c3c(nc(OC[C@@]45CCCN4CC4(CC4)C5)nc13)N1CCCOC[C@H]1CO2` [Example 18, (8aS)-2-{[(7′aS)-dihydro-1′H,3′H-spiro[cyclopropane-1,2′-pyrrolizin]-7′a(5′H)-yl]methoxy}-5-(6-chloro-5-cyclopropyl-1H-indazol-4-yl)-4-fluoro-8a,9,12,13-tetrahydro-8H,11H-7,10-dioxa-1,3,6,13a-tetraazanaphtho[1,8-ab]heptalene]: the IC50 came out at 479 nM in test [1], 304 nM in test [2] and 68 nM in test [3]. For the same compound, the Kd at KRAS Wild Type came out at 61 nM; at KRAS G12V, 61 nM; on KRAS G12D it was 34 nM; on KRAS G12C it was 64 nM.
Consider `C=C1CN2C[C@H](O)C[C@@]2(COc2nc3c4c(nc(-c5c(C6CC6)c(Cl)cc6[nH]ncc56)c(F)c4n2)OC[C@@H]2COCCCN32)C1` [Example 25, (2R,7aR)-7a-({[(8aS)-5-(6-chloro-5-cyclopropyl-1H-indazol-4-yl)-4-fluoro-8a,9,12,13-tetrahydro-8H,11H-7,10-dioxa-1,3,6,13a-tetraazanaphtho[1,8-ab]heptalen-2-yl]oxy}methyl)-6-methylidenehexahydro-1H-pyrrolizin-2-ol], for which the IC50 in test [1] was 22 nM; in test [2], 41 nM; in test [3] it was 13 nM. Besides, the Kd was 4 nM on KRAS Wild Type, 2 nM on KRAS G12V, 3 nM on KRAS G12D and 2 nM on KRAS G12C.
With `C/C=C1/CN2CCC[C@@]2(COc2nc3c4c(nc(-c5c(C6CC6)c(Cl)cc6[nH]ncc56)c(F)c4n2)OC[C@@H]2COCCCN32)C1` [Example 27, (8aS)-5-(6-chloro-5-cyclopropyl-1H-indazol-4-yl)-2-{[(2E,7aS)-2-ethylidenetetrahydro-1H-pyrrolizin-7a(5H)-yl]methoxy}-4-fluoro-8a,9,12,13-tetrahydro-8H,11H-7,10-dioxa-1,3,6,13a-tetraazanaphtho[1,8-ab]heptalene], the half-maximal inhibitory concentration (IC50) turned out to be 74 nM in test [1], 72 nM in test [2] and 9 nM in test [3]. For the same compound, the Kd came to 9 nM at KRAS Wild Type, 6 nM at KRAS G12V, 4 nM at KRAS G12D and 3 nM on KRAS G12C.
Turning to `C=C1CN2CCC[C@@]2(COc2nc3c4c(nc(-c5c6c(cc7[nH]ncc57)CCC[C@@H]6C)c(F)c4n2)OC[C@@H]2COCCCN32)C1` [Example 32, (8aS)-4-fluoro-2-{[(7aS)-2-methylidenetetrahydro-1H-pyrrolizin-7a(5H)-yl]methoxy}-5-[(5S)-5-methyl-5,6,7,8-tetrahydro-1H-benzo[f]indazol-4-yl]-8a,9,12,13-tetrahydro-8H,11H-7,10-dioxa-1,3,6,13a-tetraazanaphtho[1,8-ab]heptalene], the IC50 in test [1] is 1420 nM; in test [2] it was 768 nM; in test [3], 161 nM. Besides, the Kd stood at 46 nM at KRAS Wild Type, 36 nM on KRAS G12V, 19 nM on KRAS G12D and 39 nM on KRAS G12C.
On to `C=C1CN2CCC[C@@]2(COc2nc3c4c(nc(-c5c(CC)c(Cl)cc6[nH]ncc56)c(F)c4n2)OC[C@@H]2COCCCN32)C1` [Example 33, (8aS)-5-(6-chloro-5-ethyl-1H-indazol-4-yl)-4-fluoro-2-{[(7aS)-2-methylidenetetrahydro-1H-pyrrolizin-7a(5H)-yl]methoxy}-8a,9,12,13-tetrahydro-8H,11H-7,10-dioxa-1,3,6,13a-tetraazanaphtho[1,8-ab]heptalene], for which the values for the IC50 in test [1], in test [2] and in test [3] were 103 nM, 58 nM and 18 nM, respectively. The Kd was 8 nM at KRAS Wild Type, 6 nM at KRAS G12V, 6 nM on KRAS G12D and 6 nM at KRAS G12C.
